Earlier results on one molecule are cited in patent publication US20240002325A1, “OXYLIPINS, PROCESSES FOR MAKING THE SAME, AND METHODS FOR USING THE SAME” (THE TRUSTEES OF INDIANA UNIVERSITY, priority 2020, published 2024).

Structures are written as SMILES.

The test system of series [1] is flagellum-driven swimming and swarming motilities. To be noted: has been reported.
In series [2] the test system is bacterial biofilms. The note with it: in vitro; has been reported.

`CCCCCCCCC(O)/C=C/CCCCCCC(=O)O` (centres unmarked) [Compound 10-HOME, (E)-10-hydroxyoctadec-8-enoic acid]: the “effect on flagellum-driven swimming and swarming motilities” value in series [1] is “inhibit flagellum-driven swimming and swarming motilities”. Also, in series [2], the “effect on formation of bacterial biofilms” value is listed as “stimulate the formation of bacterial biofilms in vitro”.
